From patent publication US10577369B2, “Substituted quinazolinones for inhibiting PI3K” (priority 2016, dated 2020)
Like-named read-outs stand apart in the source and are kept apart here.

Experiments:
[1] = test system: diffuse large B-cell lymphoma (DLBCL) and acute lymphocytic leukemia (ALL) cells; experiment: Apoptosis of DLBCL and ALL cells by flow cytometry (Annexin V-FITC/PI); assay type: cell-based; conditions: 50 μM, 24 hours, FIG. 5
Description: The cells were washed with PBS, and then suspended in a binding buffer. 5 μl of an Annexin V-FITC stock solution (Becton Dickinson Science, Inc) and 5 μl of PI (20 μg/ml) were added thereto, followed by incubation at room temperature for 15 minutes with light-shielding, and then the target material was quantified on FACScan™ (Becton Dickinson) by flow cytometry.

rats = experiment: Single dose toxicity test in rats; assay type: in vivo, rat; conditions: single oral dose, female rats, observed day 1 to day 2; approximate lethal dose
Description: The compound of Formula 7 and the compound of Formula 8 were orally administered to eight six-week-old female rats, to observe the single dose oral toxicity thereof and to obtain an approximate lethal dose. The dosage was set at 10 mL/kg, and the dosage for each rat was calculated based on body weight. Each compound was administered at doses of 100 mg/kg, 300 mg/kg, 900 mg/kg, and 1,500 mg/kg, and general symptoms were observed once a day from day 1 to day 2 after administration.

SUDHL5 (DLBCL) cells = experiment: Growth inhibition of lymphoma cells (CCK-8), SUDHL5; assay type: cell-based; conditions: Homo sapiens, read-out: LC50 SUDHL5 (DLBCL)
Description: (§1) Cell growth-inhibiting effects on the DLBCL-derived cells and the ALL-derived cells were evaluated by measuring the absorbance of cell counting kit-8 (CCK-8) dye. During the last 3 hours of the 48 hours, […] of a CCK-8 dye was added to each plate and then cultured.
(§2) All data are expressed as the mean (±SD) of three independent experiments.

PI3K p110α = target: T1, PI3K p110α (Homo sapiens, UniProt P42336); experiment: PI3K kinase activity test (Adapta kinase assay), p110α; assay type: biochemical
T1 construct: purchased Thermo Fisher Scientific Inc. (SelectScreen Services)
T1 sequence (P42336 whole entry): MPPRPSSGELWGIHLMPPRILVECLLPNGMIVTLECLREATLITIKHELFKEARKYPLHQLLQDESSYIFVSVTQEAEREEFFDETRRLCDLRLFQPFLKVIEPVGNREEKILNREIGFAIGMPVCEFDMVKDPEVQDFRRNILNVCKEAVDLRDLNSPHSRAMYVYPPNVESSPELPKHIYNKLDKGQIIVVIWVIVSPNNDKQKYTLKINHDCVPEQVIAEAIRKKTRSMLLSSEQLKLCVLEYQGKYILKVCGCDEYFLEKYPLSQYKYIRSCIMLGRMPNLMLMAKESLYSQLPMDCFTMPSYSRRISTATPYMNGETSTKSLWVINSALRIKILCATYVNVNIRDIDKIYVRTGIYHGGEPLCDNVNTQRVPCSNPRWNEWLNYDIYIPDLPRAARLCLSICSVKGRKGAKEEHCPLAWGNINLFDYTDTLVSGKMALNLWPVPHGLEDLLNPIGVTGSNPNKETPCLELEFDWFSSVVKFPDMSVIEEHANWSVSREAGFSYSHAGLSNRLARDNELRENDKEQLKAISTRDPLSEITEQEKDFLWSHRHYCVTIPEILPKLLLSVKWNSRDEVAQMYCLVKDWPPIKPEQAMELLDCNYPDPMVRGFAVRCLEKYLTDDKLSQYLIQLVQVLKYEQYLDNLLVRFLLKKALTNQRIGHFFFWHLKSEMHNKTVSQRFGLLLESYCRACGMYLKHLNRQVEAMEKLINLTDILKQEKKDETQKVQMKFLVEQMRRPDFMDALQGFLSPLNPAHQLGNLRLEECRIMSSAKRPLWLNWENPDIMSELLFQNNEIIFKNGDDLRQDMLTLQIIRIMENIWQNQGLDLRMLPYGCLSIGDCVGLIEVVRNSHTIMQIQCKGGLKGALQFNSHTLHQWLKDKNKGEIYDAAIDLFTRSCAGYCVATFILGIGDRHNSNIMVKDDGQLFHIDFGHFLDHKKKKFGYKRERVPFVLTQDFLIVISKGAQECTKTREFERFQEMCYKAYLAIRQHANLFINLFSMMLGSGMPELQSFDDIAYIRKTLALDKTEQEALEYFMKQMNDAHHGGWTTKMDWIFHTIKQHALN
T1 sequence (P27986 whole entry partner): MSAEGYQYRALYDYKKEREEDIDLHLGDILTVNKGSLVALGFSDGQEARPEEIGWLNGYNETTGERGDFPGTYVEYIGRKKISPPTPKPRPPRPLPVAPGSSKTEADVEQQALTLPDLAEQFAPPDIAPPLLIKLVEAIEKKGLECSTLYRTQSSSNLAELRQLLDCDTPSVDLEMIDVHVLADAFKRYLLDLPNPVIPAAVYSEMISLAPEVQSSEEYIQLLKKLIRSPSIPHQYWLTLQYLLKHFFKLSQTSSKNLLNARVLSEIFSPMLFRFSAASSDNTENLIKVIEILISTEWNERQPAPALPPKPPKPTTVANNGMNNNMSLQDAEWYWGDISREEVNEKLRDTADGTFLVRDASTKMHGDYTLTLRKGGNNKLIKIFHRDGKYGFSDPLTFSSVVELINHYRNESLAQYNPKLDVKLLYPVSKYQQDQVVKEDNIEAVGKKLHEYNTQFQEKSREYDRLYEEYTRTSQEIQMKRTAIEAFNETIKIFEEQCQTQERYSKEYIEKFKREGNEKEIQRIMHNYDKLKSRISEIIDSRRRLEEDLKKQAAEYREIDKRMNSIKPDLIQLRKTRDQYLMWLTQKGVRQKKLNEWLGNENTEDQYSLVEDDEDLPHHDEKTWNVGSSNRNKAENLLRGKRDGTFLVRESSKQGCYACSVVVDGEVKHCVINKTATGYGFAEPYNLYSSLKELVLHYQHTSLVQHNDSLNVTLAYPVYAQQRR
Description: (§3) An experiment was conducted using a homogeneous, fluorescence-based immunoassay, which is Adapta kinase assay. SelectScreen™ Services available from Thermo Fisher Scientific Inc. was carried out.

PI3K p110γ = target: T2, PI3K p110γ (Homo sapiens, UniProt P48736); experiment: PI3K kinase activity test (Adapta kinase assay), p110γ; assay type: biochemical
T2 construct: purchased Thermo Fisher Scientific Inc. (SelectScreen Services)
T2 sequence (P48736 whole entry): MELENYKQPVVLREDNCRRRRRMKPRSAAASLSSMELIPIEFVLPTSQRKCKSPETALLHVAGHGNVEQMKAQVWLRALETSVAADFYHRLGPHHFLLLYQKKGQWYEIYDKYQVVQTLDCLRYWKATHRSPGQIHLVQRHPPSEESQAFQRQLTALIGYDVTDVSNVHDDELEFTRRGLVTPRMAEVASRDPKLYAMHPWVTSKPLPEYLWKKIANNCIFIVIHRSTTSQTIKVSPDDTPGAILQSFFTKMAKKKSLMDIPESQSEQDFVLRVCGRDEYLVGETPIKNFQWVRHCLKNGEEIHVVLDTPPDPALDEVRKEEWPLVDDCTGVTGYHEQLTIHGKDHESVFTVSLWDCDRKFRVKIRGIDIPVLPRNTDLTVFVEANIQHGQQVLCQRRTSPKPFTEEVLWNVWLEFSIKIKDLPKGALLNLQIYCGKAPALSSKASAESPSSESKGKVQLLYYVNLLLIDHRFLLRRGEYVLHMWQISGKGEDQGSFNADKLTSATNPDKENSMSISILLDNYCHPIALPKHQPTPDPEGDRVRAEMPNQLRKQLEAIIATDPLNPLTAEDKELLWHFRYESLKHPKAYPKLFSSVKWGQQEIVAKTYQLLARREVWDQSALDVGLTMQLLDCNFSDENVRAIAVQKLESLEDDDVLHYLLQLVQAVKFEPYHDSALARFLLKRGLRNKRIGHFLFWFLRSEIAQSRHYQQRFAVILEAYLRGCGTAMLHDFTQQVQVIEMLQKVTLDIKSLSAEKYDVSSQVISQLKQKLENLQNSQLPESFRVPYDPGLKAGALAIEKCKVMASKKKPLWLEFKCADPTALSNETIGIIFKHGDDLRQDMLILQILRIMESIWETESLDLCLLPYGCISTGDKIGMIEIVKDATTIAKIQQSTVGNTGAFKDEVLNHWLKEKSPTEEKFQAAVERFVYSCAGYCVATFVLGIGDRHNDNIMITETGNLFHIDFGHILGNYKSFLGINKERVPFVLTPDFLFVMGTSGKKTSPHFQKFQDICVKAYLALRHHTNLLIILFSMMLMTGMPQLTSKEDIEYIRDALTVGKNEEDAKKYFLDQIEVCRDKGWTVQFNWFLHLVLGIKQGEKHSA
Description: as §3

PI3K p110δ = target: T3, PI3K p110δ (Homo sapiens, UniProt O00329); experiment: PI3K kinase activity test (Adapta kinase assay), p110δ; assay type: biochemical; conditions: for IC50: Adapta kinase assay; for ratio PI3Kα/PI3Kδ, as IC50 values / ratio PI3Kβ/PI3Kδ, as IC50 values / ratio of PI3Kγ/PI3Kδ: selectivity, ratio of IC50 values
T3 construct: purchased Thermo Fisher Scientific Inc. (SelectScreen Services)
T3 sequence (O00329 whole entry): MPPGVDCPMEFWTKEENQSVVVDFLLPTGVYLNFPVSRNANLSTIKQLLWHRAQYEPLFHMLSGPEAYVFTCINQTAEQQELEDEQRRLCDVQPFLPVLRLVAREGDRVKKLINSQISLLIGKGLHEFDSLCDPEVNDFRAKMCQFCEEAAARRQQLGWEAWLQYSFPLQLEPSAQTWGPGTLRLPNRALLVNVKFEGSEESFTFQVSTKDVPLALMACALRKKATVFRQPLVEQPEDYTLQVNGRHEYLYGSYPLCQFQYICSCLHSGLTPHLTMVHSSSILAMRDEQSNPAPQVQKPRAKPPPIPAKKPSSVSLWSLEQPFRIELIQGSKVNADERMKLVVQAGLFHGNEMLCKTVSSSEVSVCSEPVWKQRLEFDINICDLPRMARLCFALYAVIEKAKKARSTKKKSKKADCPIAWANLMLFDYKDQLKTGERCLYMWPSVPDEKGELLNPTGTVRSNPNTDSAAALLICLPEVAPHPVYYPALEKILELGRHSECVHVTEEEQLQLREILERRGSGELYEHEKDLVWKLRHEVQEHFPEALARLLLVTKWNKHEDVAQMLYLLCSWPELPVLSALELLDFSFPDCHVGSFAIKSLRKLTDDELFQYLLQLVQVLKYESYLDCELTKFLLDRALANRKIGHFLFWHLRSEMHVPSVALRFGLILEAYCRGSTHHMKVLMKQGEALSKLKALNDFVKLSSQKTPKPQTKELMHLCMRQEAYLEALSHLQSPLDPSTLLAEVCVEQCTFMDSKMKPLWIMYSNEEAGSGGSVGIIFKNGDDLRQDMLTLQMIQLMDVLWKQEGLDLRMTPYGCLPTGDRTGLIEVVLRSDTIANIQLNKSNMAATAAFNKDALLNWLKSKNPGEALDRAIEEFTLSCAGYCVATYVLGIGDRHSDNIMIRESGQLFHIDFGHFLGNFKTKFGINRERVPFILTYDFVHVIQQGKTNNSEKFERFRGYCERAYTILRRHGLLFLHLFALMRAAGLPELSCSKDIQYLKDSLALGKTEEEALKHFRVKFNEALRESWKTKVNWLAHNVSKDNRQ
T3 sequence (P27986 whole entry partner): as the sequence (P27986 whole entry partner) above
Description: as §3

Phospho-Akt (Ser473) = experiment: AKT (Ser473) phosphorylation in leukemia and lymphoma cell lines (immunoblotting); assay type: cell-based; conditions: 1 μM, 1 hour; SUDHL 5, SUDHL 10, CCRF-SB, MOLT4; FIG. 2
Description: Subsequently, cells were lysed and fractionated according to size, followed by immunoblotting with antibodies directed against Phospho-Akt (Ser473).

[2] = test system: human umbilical vein endothelial cells (HUVECs); experiment: Angiogenesis inhibition, HUVEC tube formation; assay type: cell-based; conditions: HUVECs on basement membrane matrix, 18 hours; FIG. 7
Description: After 18 hours, tube formation was photographed using a Cytation™ 5 fluorescence microscope (BioTek), and the number of areas formed by branch points was counted using software (see FIG. 6).

[3] = test system: diffuse large B-cell lymphoma (DLBCL) and acute lymphocytic leukemia (ALL) cells; experiment: Apoptosis of DLBCL and ALL cells by SDS-PAGE / immunoblotting (caspase 3, 9, PARP cleavage); assay type: cell-based; conditions: 50 μM, 36 hours; FIG. 4
Description: Immunoblotting analysis was performed using antibodies of these, and glyceraldehyde-3-phosphate dehydrogenase (GAPDH) was used as a loading control.

SupB15 (ALL) cells = experiment: Growth inhibition of leukemia cells (CCK-8), SupB15; assay type: cell-based; conditions: Homo sapiens, read-out: LC50 SupB15 (ALL)
Description: as §1, §2

[4] = test system: human umbilical vein endothelial cells (HUVECs); experiment: Number of viable HUVECs treated with compound; assay type: cell-based; conditions: FIG. 8
PI3K p110β = target: T4, PI3K p110β (Homo sapiens, UniProt P42338); experiment: PI3K kinase activity test (Adapta kinase assay), p110β; assay type: biochemical
T4 construct: purchased Thermo Fisher Scientific Inc. (SelectScreen Services)
T4 sequence (P42338 whole entry): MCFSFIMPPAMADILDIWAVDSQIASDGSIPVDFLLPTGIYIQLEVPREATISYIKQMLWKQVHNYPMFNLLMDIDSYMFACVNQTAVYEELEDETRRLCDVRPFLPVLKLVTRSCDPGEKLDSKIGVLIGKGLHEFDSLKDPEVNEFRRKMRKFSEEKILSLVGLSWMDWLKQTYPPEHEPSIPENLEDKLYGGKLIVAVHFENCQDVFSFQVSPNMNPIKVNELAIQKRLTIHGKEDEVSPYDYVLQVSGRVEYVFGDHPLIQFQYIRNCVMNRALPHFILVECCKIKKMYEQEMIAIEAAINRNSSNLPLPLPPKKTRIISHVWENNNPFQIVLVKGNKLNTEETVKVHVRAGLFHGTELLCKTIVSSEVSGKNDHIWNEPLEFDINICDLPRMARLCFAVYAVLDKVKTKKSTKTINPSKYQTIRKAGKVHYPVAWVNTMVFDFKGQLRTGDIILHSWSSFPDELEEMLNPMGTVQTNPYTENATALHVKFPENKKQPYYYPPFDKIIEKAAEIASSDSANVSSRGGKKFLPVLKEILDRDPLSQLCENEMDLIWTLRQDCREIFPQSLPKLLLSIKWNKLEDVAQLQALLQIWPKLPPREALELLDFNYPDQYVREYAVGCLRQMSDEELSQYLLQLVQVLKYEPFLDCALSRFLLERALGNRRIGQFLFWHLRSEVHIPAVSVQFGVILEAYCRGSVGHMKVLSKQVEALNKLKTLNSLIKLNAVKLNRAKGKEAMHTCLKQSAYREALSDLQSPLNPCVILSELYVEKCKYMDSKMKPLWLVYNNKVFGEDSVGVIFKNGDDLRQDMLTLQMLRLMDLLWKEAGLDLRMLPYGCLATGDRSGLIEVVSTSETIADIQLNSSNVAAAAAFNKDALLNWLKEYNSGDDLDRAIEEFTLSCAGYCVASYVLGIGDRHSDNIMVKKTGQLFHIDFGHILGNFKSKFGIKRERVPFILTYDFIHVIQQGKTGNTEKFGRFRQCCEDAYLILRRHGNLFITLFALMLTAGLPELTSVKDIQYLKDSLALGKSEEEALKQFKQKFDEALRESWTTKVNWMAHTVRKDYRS
T4 sequence (P27986 whole entry partner): as the sequence (P27986 whole entry partner) above
Description: as §3

MOLT4 (ALL) cells = experiment: Growth inhibition of leukemia cells (CCK-8), MOLT4; assay type: cell-based; conditions: Homo sapiens, read-out: LC50 MOLT4 (ALL)
Description: as §1, §2

| Structure (SMILES) | apoptosis induction compared with idelalisib (flow cytometry) [1] | lethal dose (rats) | CC50 (SUDHL5 (DLBCL) cells; SU-DHL-5, 48 h) | IC50 (PI3K p110α) | IC50 (PI3K p110γ) | IC50 (PI3K p110δ) | ratio PI3Kα/PI3Kδ, as IC50 values (PI3K p110δ) | ratio PI3Kβ/PI3Kδ, as IC50 values (PI3K p110δ) | ratio of PI3Kγ/PI3Kδ (PI3K p110δ) | reduction of AKT (Ser473) phosphorylation (Phospho-Akt (Ser473)) | inhibition of angiogenesis (tube formation) compared with idelalisib [2] | apoptosis compared with comparative drug idelalisib (SDS-PAGE) [3] | apoptosis induction (SDS-PAGE, immunoblotting) [3] | CC50 (SupB15 (ALL) cells; SUP-B15, 48 h) | cytotoxicity to HUVECs (number of viable cells) [4] | IC50 (PI3K p110β) | CC50 (MOLT4 (ALL) cells; MOLT-4, 48 h) | CC50 (SUDHL5 (DLBCL) cells; SU-DHL-5, 48 hours, CCK-8) | CC50 (SupB15 (ALL) cells; SUP-B15, 48 hours, CCK-8) | CC50 (MOLT4 (ALL) cells; MOLT-4, 48 hours, CCK-8) |
| --- | --- | --- | --- | --- | --- | --- | --- | --- | --- | --- | --- | --- | --- | --- | --- | --- | --- | --- | --- | --- |
| O=c1c2c(F)cccc2nc([C@@H](Nc2ncnc3nc[nH]c23)C2CC2)n1-c1ccccc1 [Formula 7, (S)-2-(((7H-purin-6-yl)amino)(cyclopropyl)methyl)-5-fluoro-3-phenylquinazolin-4(3H)-one] | more effectively induced apoptosis than the comparative drug | > 1,500 mg/kg | 1100 nM | 206 nM | 25.7 nM | 0.5 nM | 412 | 210 | 51 | induced the reduction of AKT phosphorylation | inhibited angiogenesis more than the comparative drug | apoptosis occurred more actively | induced apoptosis | > 20 µM | did not significantly affect the cytotoxicity | 105 nM | 13.7 µM | – | – | – |
| Cc1cccc2nc([C@@H](Nc3ncnc4nc[nH]c34)C3CC3)n(-c3ccccc3)c(=O)c12 [Formula 8, (S)-2-(((7H-purin-6-yl)amino)(cyclopropyl)methyl)-5-methyl-3-phenylquinazolin-4(3H)-one] | more effectively induced apoptosis than the comparative drug | 1,500 mg/kg | 900 nM | 134 nM | 8.6 nM | 0.09 nM | 1,488 | 1,800 | 95 | induced the reduction of AKT phosphorylation | inhibited angiogenesis more than the comparative drug | apoptosis occurred more actively | induced apoptosis | 16.5 µM | did not significantly affect the cytotoxicity | 162 nM | 4.9 µM | – | – | – |
| CC[C@H](Nc1ncnc2[nH]cnc12)c1nc2cccc(F)c2c(=O)n1-c1ccccc1 [Idelalisib, idelalisib, reference compound] | – | – | – | – | – | – | – | – | – | – | – | – | – | – | – | – | – | 3000 nM | > 20 µM | > 20 µM |
